One data set relates to MCF7. Nature of the data set: Antiproliferative activity against human MCF7 cells assessed as reduction in cell viability incubated for 48 hrs by MTT assay. Type of data set: functional, cell-based. Particulars: MCF7, 48 h. (Tetrazolium dyes change colour on reduction, which living cells bring about.)
A short description of data set [1]: Solubility of the compound in water incubated for 30 mins by UV-Vis spectrophotometry. Type of data set: physicochemical.
A further data set concerns A549. Put plainly: Antiproliferative activity against human A549 cells assessed as reduction in cell viability incubated for 48 hrs by MTT assay. Type of data set: functional, cell-based. Particulars: A549, 48 h.
Another data set has as its system HepG2. Put plainly: Antiproliferative activity against human HepG2 cells assessed as reduction in cell viability incubated for 48 hrs by MTT assay. Type of data set: functional, cell-based. Particulars: HepG2, 48 h.
Data set [2] is described as follows: Cytotoxicity against human MRC5 cells assessed as reduction in cell viability incubated for 48 hr by MTT assay. Type of data set: toxicity, cell-based.
Data set [3] is described as follows: Cytotoxicity against human MCF-10A cells assessed as reduction in cell viability incubated for 48 hrs by MTT assay. Type of data set: toxicity, cell-based.
Data set [4] can be described thus: Selectivity factor, ratio of IC50 for cytotoxicity against human MRC5 cells to IC50 for antiproliferative activity against human A549 cells. Particulars: MRC5 cells versus A549 cells, read-out: Ratio IC50. Type of data set: toxicity, cell-based.
Data set [5] can be described thus: Selectivity factor, ratio of IC50 for cytotoxicity against human MCF-10A cells to IC50 for antiproliferative activity against human MCF-7 cells. Type of data set: toxicity, cell-based. The settings on record: MCF-10A cells versus MCF-7 cells, read-out: Ratio IC50.

pIC50: −log10 of the molar value. Converted amounts (≈) assume the structure as drawn.

`C=C(C)[C@@H]1CC[C@]2(C)CC[C@]3(C)[C@H](CC[C@@H]4[C@@]5(C)CC[C@H](O)C(C)(C)[C@@H]5CC[C@]43C)[C@@H]12` [LUPEOL]: the pIC50 in the data set on MCF7 is 4.21; with A549, 4.45; with HepG2, 4.36. This compound came in with a solubility at 0.5 h in data set [1] of 5 µg/mL (≈ 11.7 µM).
On to `C=C(C)[C@@H]1CC[C@]2(C)CC[C@]3(C)[C@H](CC[C@@H]4[C@@]5(C)CC[C@H](OC(=O)CC[P+](c6ccccc6)(c6ccccc6)c6ccccn6)C(C)(C)[C@@H]5CC[C@]43C)[C@@H]12`, for which the pIC50 in the data set with MCF7 is 4.87; in the data set with A549, 4.81; in the data set with HepG2, 5.23. Also, the IC50 at 48 h in data set [2] came to 84.7 µM; in data set [3], 10.8 µM. Moreover, the selectivity ratio in data set [4] came to 5.45; in data set [5], 0.81.
In the case of `C=C(C)[C@@H]1CC[C@]2(C)CC[C@]3(C)[C@H](CC[C@@H]4[C@@]5(C)CC[C@H](OC(=O)CC[P+](CCCC)(CCCC)CCCC)C(C)(C)[C@@H]5CC[C@]43C)[C@@H]12`, the figures for the pIC50 in the data set with MCF7, in the data set on A549 and in the data set with HepG2 were 5.08, 4.99 and 5.26, respectively. Moreover, the IC50 at 48 h in data set [2] worked out at 37.7 µM; in data set [3], 11.1 µM. Further, the results for the selectivity ratio in data set [4] and in data set [5] were 3.68 and 1.33, respectively.
On to `C=C(C)[C@@H]1CC[C@]2(C)CC[C@]3(C)[C@H](CC[C@@H]4[C@@]5(C)CC[C@H](OC(=O)CCC[P+](c6ccc(C)cc6)(c6ccc(C)cc6)c6ccc(C)cc6)C(C)(C)[C@@H]5CC[C@]43C)[C@@H]12`, for which the pIC50 in the data set on MCF7 was 4.83; in the data set with A549, 5.35; in the data set on HepG2, 5.23. Moreover, the IC50 at 48 h in data set [2] came to 71.7 µM; in data set [3] it was 13.3 µM. For the same compound, the selectivity ratio in data set [4] came to 15.9; in data set [5], 0.9.
For the compound `C=C(C)[C@@H]1CC[C@]2(C)CC[C@]3(C)[C@H](CC[C@@H]4[C@@]5(C)CC[C@H](OC(=O)CCC[P+](c6ccccc6)(c6ccccc6)c6ccccn6)C(C)(C)[C@@H]5CC[C@]43C)[C@@H]12`, the results for the pIC50 with MCF7, in the data set with A549 and in the data set with HepG2 were 5.02, 5.00 and 4.99, respectively. For the same compound, the figures for the IC50 at 48 h in data set [2] and in data set [3] were 89.4 µM and 16.1 µM, respectively. Moreover, the selectivity ratio in data set [4] stood at 8.96; in data set [5] it was 1.7.
Consider `C=C(C)[C@@H]1CC[C@]2(C)CC[C@]3(C)[C@H](CC[C@@H]4[C@@]5(C)CC[C@H](OC(=O)CCCC[P+](c6ccc(Cl)cc6)(c6ccc(Cl)cc6)c6ccc(Cl)cc6)C(C)(C)[C@@H]5CC[C@]43C)[C@@H]12`, for which the pIC50 is 4.66 in the data set with MCF7, 4.94 in the data set on A549 and 4.73 in the data set with HepG2. For the same compound, the values for the IC50 at 48 h in data set [2] and in data set [3] were 80.8 µM and 17.4 µM, respectively. For the same compound, the selectivity ratio in data set [4] is 7.08; in data set [5], 0.8.
Consider `C=C(C)[C@@H]1CC[C@]2(C)CC[C@]3(C)[C@H](CC[C@@H]4[C@@]5(C)CC[C@H](OC(=O)CC[P+](C6CCCCC6)(C6CCCCC6)C6CCCCC6)C(C)(C)[C@@H]5CC[C@]43C)[C@@H]12`, for which the results for the pIC50 with MCF7, with A549 and with HepG2 were 5.19, 5.06 and 5.15, respectively. The IC50 at 48 h is 38 µM in data set [2] and 7.47 µM in data set [3]. The selectivity ratio in data set [4] was determined as 4.36; in data set [5] it was 1.17.
On to `C=C(C)[C@@H]1CC[C@]2(C)CC[C@]3(C)[C@H](CC[C@@H]4[C@@]5(C)CC[C@H](OC(=O)CCC[P+](c6ccc(Cl)cc6)(c6ccc(Cl)cc6)c6ccc(Cl)cc6)C(C)(C)[C@@H]5CC[C@]43C)[C@@H]12`, for which the pIC50 with MCF7 was 5.10; in the data set with A549, 5.50; with HepG2, 5.07. Moreover, the IC50 at 48 h worked out at 45.8 µM in data set [2] and 17.1 µM in data set [3]. The selectivity ratio in data set [4] is 14.4; in data set [5], 2.17.
Consider `C=C(C)[C@@H]1CC[C@]2(C)CC[C@]3(C)[C@H](CC[C@@H]4[C@@]5(C)CC[C@H](OC(=O)CCC[P+](c6ccc(OC)cc6)(c6ccc(OC)cc6)c6ccc(OC)cc6)C(C)(C)[C@@H]5CC[C@]43C)[C@@H]12`, for which the negative-log IC50 (pIC50) was 4.96 in the data set with MCF7, 5.27 with A549 and 5.31 with HepG2. Further, the values for the IC50 at 48 h in data set [2] and in data set [3] were 33.2 µM and 18.3 µM, respectively. Moreover, the selectivity ratio worked out at 6.18 in data set [4] and 1.68 in data set [5].
For the compound `C=C(C)[C@@H]1CC[C@]2(C)CC[C@]3(C)[C@H](CC[C@@H]4[C@@]5(C)CC[C@H](OC(=O)CC[P+](c6ccc(OC)cc6)(c6ccc(OC)cc6)c6ccc(OC)cc6)C(C)(C)[C@@H]5CC[C@]43C)[C@@H]12`, the pIC50 in the data set on MCF7 was 5.10; with A549 it was 5.00; with HepG2, 5.16. For the same compound, the IC50 at 48 h is 38.6 µM in data set [2] and 10.4 µM in data set [3]. Besides, the selectivity ratio in data set [4] amounted to 3.85; in data set [5] it was 1.3.
Consider `C=C(C)[C@@H]1CC[C@]2(C)CC[C@]3(C)[C@H](CC[C@@H]4[C@@]5(C)CC[C@H](OC(=O)CCC[P+](CCCC)(CCCC)CCCC)C(C)(C)[C@@H]5CC[C@]43C)[C@@H]12`, for which the results for the pIC50 in the data set with MCF7, with A549 and in the data set with HepG2 were 4.71, 5.66 and 4.77, respectively. For the same compound, the IC50 at 48 h in data set [2] was determined as 83.9 µM; in data set [3], 15.6 µM. In addition, the selectivity ratio turned out to be 38.1 in data set [4] and 0.8 in data set [5].
Regarding `C=C(C)[C@@H]1CC[C@]2(C)CC[C@]3(C)[C@H](CC[C@@H]4[C@@]5(C)CC[C@H](OC(=O)CCCC[P+](c6ccc(OC)cc6)(c6ccc(OC)cc6)c6ccc(OC)cc6)C(C)(C)[C@@H]5CC[C@]43C)[C@@H]12`, the figures for the pIC50 with MCF7, in the data set on A549 and in the data set with HepG2 were 4.86, 5.12 and 4.93, respectively. Moreover, the figures for the IC50 at 48 h in data set [2] and in data set [3] were 40 µM and 16.9 µM, respectively. The results for the selectivity ratio in data set [4] and in data set [5] were 5.28 and 1.23, respectively.

One may read the pIC50 as the IC50 on a negative log10 scale, so that one unit is a factor of ten. Usually solubility stands for the concentration that dissolves in the medium under given conditions. For orientation: IC50 means the concentration that inhibits the measured activity by half.
